Tests used:
TLR2 = test: TNF-α production by splenocytes in response to TLR2 ligand PGN; assay type: cell-based, C57BL/6 mice; conditions: 48 hours, OPLT 1.85 μg/ml, dexamethasone 100 μg/ml, rapamycin 625 μg/ml
Protocol: (§1) OPLT was dissolved in sterile PBS at 100 μM, and pH was adjusted to approximately 7.5. Splenocytes from naïve C57BL/6 mice were stained with CFSE, prepared, cultured, and dosed. Cells were seeded at 2×10^5 cells/well.
(§2) To evaluate the effects of OPLT on cytokine production by splenocytes in response to different TLR ligands, splenocytes were incubated with one of the following TLR ligands in triplicate: PGN, LPS, ODN CPG, dsRNA, or ssRNA, as per group assignment. Cells were then treated as follows: • Control: No treatment; • OPLT: Cells were dosed with 1.85 μg/ml; • Dexamethasone: Cells were dosed with 100 μg/ml; • Rapamycin: Cells were dosed with 625 μg/ml. Cells were incubated for 48 hours before collecting the supernatant for TNF-α analysis.
(§3) The supernatant was collected for TNF-α analysis by ELISA.

TLR3 = test: TNF-α production by splenocytes in response to TLR3 ligand poly(I:C); assay type: cell-based, C57BL/6 mice; conditions: 48 hours, OPLT 1.85 μg/ml, dexamethasone 100 μg/ml, rapamycin 625 μg/ml
Protocol: as §1, §2, §3

TLR4 = test: TNF-α production by splenocytes in response to TLR4 ligand LPS; assay type: cell-based, C57BL/6 mice; conditions: 48 hours, OPLT 1.85 μg/ml, dexamethasone 100 μg/ml, rapamycin 625 μg/ml
Protocol: as §1, §2, §3

TLR7 = test: TNF-α production by splenocytes in response to TLR7 ligand ssPolyU; assay type: cell-based, C57BL/6 mice; conditions: 48 hours, OPLT 1.85 μg/ml, dexamethasone 100 μg/ml, rapamycin 625 μg/ml
Protocol: as §1, §2, §3

TLR9 = test: TNF-α production by splenocytes in response to TLR9 ligand ODN CpG; assay type: cell-based, C57BL/6 mice; conditions: 48 hours, OPLT 1.85 μg/ml, dexamethasone 100 μg/ml, rapamycin 625 μg/ml
Protocol: as §1, §2, §3

[1] = test system: RAW264.7 mouse monocyte macrophage cells; test: SAR screen in RAW 264.7 cells with FVIII antigen, TNF-α ELISA (Example 5); assay type: cell-based; conditions: for TNF-α induction: liposomal (DMPC 70:30) or free form dosed 0.001-100 μM
From the text: (§4) RAW264.7 mouse monocyte macrophage cells were exposed to an increasing concentration of selected compounds in the presence of human plasma-derived FVIII as a model antigen protein. TNF-α and TGF-β production were monitored.
All molecules were formulated in RPMI media in aseptic conditions. The pH was adjusted to approximately 7.5 before dosing cells. 1,2-dimyristoyl-sn-glycero-3-phosphocholine (DM PC):PS liposomes were made at 70:30 molar ratio to make “PS” liposomes.
(§5) RAW 264.7 cells were prepared, cultured, and dosed. Cells were seeded at 4×10^5 cells/well. OPLS, OPLT and L-homocysteic acid (LHA) were dosed at 100, 85, 70, 60, 50, 30, 10, 3, 1, 0.3, 0.1, 0.03 and 0.01 mM, or at 100, 85, 70, 60, 50, 30, 10, 3 and 1 mM, as indicated. O-Benzyl-L-serine (OBLS), S-phenyl-L-cysteine (SPLC), S-benzyl-L-cysteine (SBLC) and OBLT were dosed at 100, 85, 70, 60, 50, 30, 10, 3, 1, 0.3, 0.1, 0.03, 0.01, 0.003 and 0.001 μM. Finally, 100 μl of 40 μg/ml of FVIII as a sample antigen was added to each cell. LPS and free protein were used as positive and baseline controls, respectively. TNF-α and TGF-β ELISA were conducted as per the manufacturer's instructions (R & D Systems).

[2] = test system: RAW264.7 mouse monocyte macrophage cells; test: SAR screen in RAW 264.7 cells with FVIII antigen, TGF-β ELISA (Example 5); assay type: cell-based; conditions: free compounds dosed in mM range
From the text: as §4
All molecules were formulated in RPMI media in aseptic conditions. The pH was adjusted to approximately 7.5 before dosing cells. 1,2-dimyristoyl-sn-glycero-3-phosphocholine (DM PC):PS liposomes were made at 70:30 molar ratio to make “PS” liposomes. The remaining liposomes were made by hydrating a DMPC lipid layer in PBS buffer containing a test compound to give a final molar ratio of 70:30 of DMPC:test compound.
as §5

B57BL6 Mice = test: Anti-FVIII titer analysis in mice given FVIII co-mixed with compound SC QW 4 weeks, then FVIII re-challenge (Example 1); assay type: in vivo; conditions: end of treatment after one-week washout
Protocol: (§6) OPLT was dissolved in sterile PBS, and pH was adjusted to approximately 7.5. OPLS, a comparator compound, was dissolved in sterile PBS, and pH was adjusted to approximately 7.5. FVIII in PBS was used as a control. For treatment, FVIII was co-mixed with OPLT, OPLS or diluted in PBS before administration, as per group assignment for each animal. For re-challenge, FVIII was administered alone SC to all animals regardless of group assignment. […] For a head-to-head comparison, 5 mg/injection was selected for OPLT. FVIII was dosed at 1 μg/injection.
The study was conducted in two parts: a treatment phase and a re-challenge phase. The objective of the treatment phase was to test the ability of OPLT to reduce the immunogenicity of FVIII as an antigen compared to animals administered FVIII or FVIII+OPLS. Animals were injected with FVIII, FVIII+OPLT, or FVIII+OPLS SC QW for 4 weeks. Blood samples were collected for anti-FVIII titer analysis after a one-week washout period from the last dose. The objective of the re-challenge phase of the study was to evaluate the duration of tolerance. Animals that have been successfully tolerized toward FVIII will not mount a robust immune response towards FVIII upon subsequent exposure to FVIII. After the washout period, animals were injected with (1 μg) FVIII SC QW for 2 weeks. Blood samples were collected one week after each FVIII injection for anti-FVIII titer analysis.

FoxP3+/CD4+ T-cell = test: Ex vivo flow cytometry of splenocytes for FoxP3+/CD4+ T-cells after FVIII treatment period (Example 1); assay type: in vivo, mice
Protocol: as §6
One week after the last dose in the treatment period, one animal from each group was selected at random for ex vivo analysis of the T-cell population. Spleens were collected and a single-cell suspension was prepared for cellular phenotyping by flow cytometry. Cells were stained and gated for CD4+ T-cells. FoxP3 expression level was evaluated for each animal.

Splenocytes = test: Splenocyte culture with anti-CD3/anti-CD28 without antigen, Foxp3+/CD4+ by flow cytometry (Example 4); assay type: cell-based; conditions: 100 μM, three days, anti-CD3/anti-CD28, absence of any antigen
Protocol: Splenocytes were cultured for three days in presence of anti-CD3/anti-CD28 in presence of 100 μM PS or 100 μM OPLT in absence of any antigen.

In the case of C[C@@H]1C[C@H]2[C@@H]3CCC4=CC(=O)C=C[C@]4(C)[C@@]3(F)[C@@H](O)C[C@]2(C)[C@@]1(O)C(=O)CO [Dexamethasone, dexamethasone], the TNF-α mean (TLR2; PGN 0 ng/ml) is reported as 0 pg/mL, the TNF-α mean (TLR2; PGN 1 ng/ml, CTL 730) is reported as 0 pg/mL and the TNF-α mean (TLR2; PGN 10 ng/ml, CTL 725) is reported as 0 pg/mL. For the same compound, the TNF-α mean (TLR2; PGN 100 ng/ml, CTL 834) was 0 pg/mL, the TNF-α mean (TLR3; PolyI:C 0 ng/ml) was 0 pg/mL and the TNF-α mean (TLR3; PolyI:C 1 ng/ml, CTL 0) was 0 pg/mL. The TNF-α mean (TLR3; PolyI:C 10 ng/ml, CTL 109) was 0 pg/mL, the TNF-α mean (TLR3; PolyI:C 100 ng/ml, CTL 162) was 0 pg/mL and the TNF-α mean (TLR4; LPS 0 ng/ml) was 0 pg/mL. It also gave a TNF-α mean (TLR4; LPS 1 ng/ml, CTL 143) of 0 pg/mL, a TNF-α mean (TLR4; LPS 10 ng/ml, CTL 840) of 0 pg/mL and a TNF-α mean (TLR4; LPS 100 ng/ml, CTL 1091) of 0 pg/mL. It also gave a TNF-α mean (TLR7; Poly U 0 ng/ml) of 0 pg/mL, a TNF-α mean (TLR7; Poly U 1 ng/ml, CTL 44) of 0 pg/mL and a TNF-α mean (TLR7; Poly U 10 ng/ml, CTL 51) of 0 pg/mL. The TNF-α mean (TLR7; Poly U 100 ng/ml, CTL 229) was 41 pg/mL, the TNF-α mean (TLR9; ODN CpG 0 ng/ml) was 0 pg/mL and the TNF-α mean (TLR9; ODN CpG 1 ng/ml, CTL 0) was 0 pg/mL. The TNF-α mean (TLR9; ODN CpG 10 ng/ml, CTL 338) was 0 pg/mL and the TNF-α mean (TLR9; ODN CpG 100 ng/ml, CTL 1220) was 0 pg/mL.

In the case of N[C@@H](CCS(=O)(=O)O)C(=O)O [LHA, L-homocysteic acid], the “TNF-α production (suppression) versus OPLS” value ([1]; free compounds dosed in mM range, FVIII antigen) is reported as “more potent inhibitors of TNF-α” and the “TGF-β production versus OPLS” value [2] is reported as “more potent inducers of TGF-β”.

With N[C@@H](COCc1ccccc1)C(=O)O [OBLS, O-Benzyl-L-serine] the TNF-α induction ([1]; FVIII antigen) was “failed to induce TNF-α”.

In the case of N[C@@H](Cc1ccc(OCc2ccccc2)cc1)C(=O)O [OBLT, O-benzyl-L-tyrosine], the TNF-α induction ([1]; FVIII antigen) is reported as “failed to induce TNF-α”.

N[C@@H](COP(=O)(O)O)C(=O)O [OPLS, O-phospho-L-serine, reference compound] was tested, and the “anti-FVIII titers versus FVIII control group” value (B57BL6 Mice) was “statistically lower than the FVIII control group”, the “animals that developed anti-FVIII antibodies” value (B57BL6 Mice; 5 mg/injection + FVIII SC QW 4 weeks, FVIII control 8/8) was 5/8 and the “increase in FoxP3+/CD4+ compared to the FVIII alone group” value (FoxP3+/CD4+ T-cell; 5 mg/injection co-mixed with FVIII 1 μg SC QW 4 weeks, splenocytes of one animal per group one week after last dose) was 66%. The “FoxP3+/CD4+ T-cell (flow cytometry of splenocytes)” value (FoxP3+/CD4+ T-cell; 5 mg/injection co-mixed with FVIII SC QW 4 weeks, one animal per group, FVIII alone 2.94) was 4.89.

For CO[C@H]1C[C@@H]2CC[C@@H](C)[C@@](O)(O2)C(=O)C(=O)N2CCCC[C@H]2C(=O)O[C@H]([C@H](C)C[C@@H]2CC[C@@H](O)[C@H](OC)C2)CC(=O)[C@H](C)/C=C(\C)[C@@H](O)[C@@H](OC)C(=O)[C@H](C)C[C@H](C)/C=C/C=C/C=C/1C [Rapamycin, rapamycin], the TNF-α mean (TLR2; PGN 0 ng/ml) was 0 pg/mL, the TNF-α mean (TLR2; PGN 1 ng/ml, CTL 730) was 0 pg/mL and the TNF-α mean (TLR2; PGN 10 ng/ml, CTL 725) was 0 pg/mL. The TNF-α mean (TLR2; PGN 100 ng/ml, CTL 834) was 0 pg/mL, the TNF-α mean (TLR3; PolyI:C 0 ng/ml) was 0 pg/mL and the TNF-α mean (TLR3; PolyI:C 1 ng/ml, CTL 0) was 0 pg/mL. It also gave a TNF-α mean (TLR3; PolyI:C 10 ng/ml, CTL 109) of 0 pg/mL, a TNF-α mean (TLR3; PolyI:C 100 ng/ml, CTL 162) of 0 pg/mL and a TNF-α mean (TLR4; LPS 0 ng/ml) of 0 pg/mL. For the same compound, the TNF-α mean (TLR4; LPS 1 ng/ml, CTL 143) was 0 pg/mL, the TNF-α mean (TLR4; LPS 10 ng/ml, CTL 840) was 0 pg/mL and the TNF-α mean (TLR4; LPS 100 ng/ml, CTL 1091) was 0 pg/mL. It also gave a TNF-α mean (TLR7; Poly U 0 ng/ml) of 0 pg/mL, a TNF-α mean (TLR7; Poly U 1 ng/ml, CTL 44) of 0 pg/mL and a TNF-α mean (TLR7; Poly U 10 ng/ml, CTL 51) of 29 pg/mL. The TNF-α mean (TLR7; Poly U 100 ng/ml, CTL 229) was 14 pg/mL, the TNF-α mean (TLR9; ODN CpG 0 ng/ml) was 0 pg/mL and the TNF-α mean (TLR9; ODN CpG 1 ng/ml, CTL 0) was 0 pg/mL. The TNF-α mean (TLR9; ODN CpG 10 ng/ml, CTL 338) was 0 pg/mL and the TNF-α mean (TLR9; ODN CpG 100 ng/ml, CTL 1220) was 0 pg/mL.

In the case of N[C@@H](CSCc1ccccc1)C(=O)O [SBLC, S-benzyl-L-cysteine], the TNF-α induction ([1]; FVIII antigen) is reported as “failed to induce TNF-α”.

In the case of N[C@@H](CSc1ccccc1)C(=O)O [SPLC, S-phenyl-L-cysteine], the TNF-α induction ([1]; FVIII antigen) is reported as “failed to induce TNF-α”.

In the case of “phosphatidyl serine [PS, reference compound]”, the “increase in Foxp3+/CD4+ compared to control” value (Splenocytes) is reported as 76% and the “fold difference between the ability of OPLS and PS to induce TNF-α” value ([1]; OPLS versus PS) is reported as 1,000 fold.

— patent US20240173389A1, “Compositions and Methods For Reducing Immune Intolerance” (LAPIX THERAPEUTICS, INC., priority 2021, published 2024)
